Counter-ions that a name gives are not always drawn.
Experiments:
Type in all cases: cell-based, human
cathepsin-B [1] = assay: cathepsin-B activity (z-RR-AMC) in ImaR cells; settings: 24 hours, AICAR 1 mM, 82, 112 at 2.5 μM, 15, 23, 191 at 10 μM
Protocol: (§1) The cells are lyzed and 5 μg of proteins are placed in the presence of z-RR-AMC in a 96-well plate. The fluorescence emission at 460 nm resulting from the release of AMC is then recorded.

mTOR pathway [2] = assay: western blot of 4E-BP1 phosphorylation (mTOR pathway), K562 cells; settings: 24 hours, imatinib 3 μM, AICAR 1 mM, 82, 112 at 2.5 μM, 15, 23, 191 at 10 μM
Protocol: (§2) The cells are lyzed and 30 μg of proteins are separated by SDS-PAGE (13% polyacrylamide gel) and analyzed by western blot with an antibody specific to the 4E-BP1 protein. The delayed gel migration observed reflects the level of phosphorylation of 4E-BP1.

caspase-3 [3] = assay: caspase-3 activity (Ac-DEVD-AMC) in ImaR cells; settings: 24 hours, imatinib 3 μM, AICAR 1 mM, 112 at 2.5 μM, 15, 23, 49 at 10 μM
Protocol: (§3) The cells are lyzed and 10 μg of proteins are placed in the presence of Ac-DEVD-AMC in a 96-well plate. The fluorescence emission at 460 nm resulting from the release of AMC is then recorded.

cathepsin-B [4] = assay: cathepsin-B activity (z-RR-AMC) in K562 cells; settings: 24 hours, AICAR 1 mM, 82, 112 at 2.5 μM, 15, 23, 191 at 10 μM
Protocol: as §1

caspase-3 [5] = assay: caspase-3 activity (Ac-DEVD-AMC) in K562 cells; settings: 24 hours, imatinib 3 μM, AICAR 1 mM, 112 at 2.5 μM, 15, 23, 49 at 10 μM
Protocol: as §3

mTOR pathway [6] = assay: western blot of 4E-BP1 phosphorylation (mTOR pathway), ImaR cells; settings: 24 hours, imatinib 3 μM, AICAR 1 mM, 82, 112 at 2.5 μM, 15, 23, 191 at 10 μM
Protocol: as §2

K562 cells [7] = assay: western blot of apoptosis and autophagy markers, K562 cells; settings: for expression of p62/SQSTM1: 82, 86, 112 at 2.5 μM, 15, 23, 191 at 10 μM; for LC3 cleavage (LC3-I into LC3-II): 82, 86 at 2.5 μM, 15, 23, 191, 49 at 10 μM; for type of programmed cell death induced: conclusion of Example 1, K562 and ImaR cells
Protocol: (§4) The cells are lyzed and 35 μg of proteins are separated by SDS-PAGE (12 or 14% polyacrylamide gel) and analyzed by western blot with antibodies specific to each of the markers.

ImaR cells [8] = assay: western blot of apoptosis and autophagy markers, ImaR cells; settings: 24 hours; for expression of p62/SQSTM1: AICAR 1 mM, 82, 86, 112 at 2.5 μM, 15, 23, 191 at 10 μM; for LC3 cleavage (LC3-I into LC3-II): AICAR 1 mM, 82, 86 at 2.5 μM, 15, 23, 191, 49 at 10 μM
Protocol: as §4

ImaR cells [9] = assay: cell viability (XTT) of imatinib-resistant ImaR cells; settings: for efficacy in dose-response experiment (number of viable cells): 5, 10, 25 and 50 μM, compounds effective at concentrations as low as 5 μM; for viability at 500 µM / IC50: Homo sapiens, XTT; for viability at 500 µM: 24 hours, read-out: percentage of viable cells; for IC50: dose-response 5, 10, 25 and 50 μM, Example 1 (Table 1 codes)
Protocol: (§5) The K562 leukemic cell line is obtained from the pleural effusion of a patient with CML. This line is a good model for studying this disease. […] The K562 and ImaR cells are cultivated at 37° C. under 5% CO2 in an RPMI 1640 medium containing 5% fetal bovine serum and supplemented with sodium pyruvate and antibiotics (penicillin-streptomycin).
(§6) FIGS. 1 to 4 reflect the study of the cell viability.
(§7) After the addition of XTT reagent, the absorbance is measured at 490 nm.
as §7

K562 cells [10] = assay: cell viability (XTT) of imatinib-sensitive K562 cells; settings: for efficacy in dose-response experiment (number of viable cells): 5, 10, 25 and 50 μM, compounds effective at concentrations as low as 5 μM; for viability at 500 µM: 24 hours, read-out: percentage of viable cells; for viability at 500 µM / IC50: XTT; for IC50: dose-response 5, 10, 25 and 50 μM, Example 1 (Table 1 codes)
Protocol: as §5, §6, §7, §7, §7
After adding XTT reagent, the absorbance is measured at 490 nm.

K562 cells [11] = assay: flow cytometry analysis of the cell cycle, K562 cells; settings: for proportion of cells in the G2/M phase: 24 hours, 82, 86, 112 at 2.5 μM, 15, 23, 191, 49 at 10 μM; for cells in phase G0/G1 / cells in the subG1 phase: 24 hours, imatinib 3 μM, 112 at 2.5 μM, 15, 23, 49 at 10 μM
Protocol: (§8) The x-axis of the graph of FIG. 9 corresponds to the quantity of DNA marked with propidium iodide while the y-axis corresponds to the number of cells. […] The nuclei are marked with propidium iodide, then the proportion of cells in the different phases of the cell cycle (subG1, G0/G1, S, G2/M) is determined.

ImaR cells [12] = assay: flow cytometry analysis of the cell cycle, ImaR cells; settings: for proportion of cells in the G2/M phase: 24 hours, 82, 86, 112 at 2.5 μM, 15, 23, 191, 49 at 10 μM; for cells in phase G0/G1 / cells in the subG1 phase: 24 hours, imatinib 3 μM, 112 at 2.5 μM, 15, 23, 49 at 10 μM
Protocol: as §8, with “nucleii” for “nuclei”

caspase-9 [13] = assay: caspase-9 activity (Ac-LEHD-AMC) in K562 cells
Protocol: (§9) The cells are lyzed and the caspase-9 activities are measured using 10 μg of proteins and Ac-LEHD-AMC. The fluorescence emission at 460 nm resulting from the release of AMC is then recorded.

caspase-9 [14] = assay: caspase-9 activity (Ac-LEHD-AMC) in ImaR cells; settings: 24 hours, imatinib 3 μM, 112 2.5 μM, 15 and 23 10 μM
Protocol: as §9

[15] = K562, 24 hours, AICAR 1 mM, compounds 2.5 or 10 μM
[16] = AICAR 1 mM, compounds 2.5 or 10 μM
[17] = Homo sapiens, K562, 24 or 48 hours

Row | Compound | increase in the cathepsin-B activity (factor) (cathepsin-B [1]) | phosphorylation of 4E-BP1 (mTOR pathway [2]) | increase in the caspase-3 activity (factor with respect to the control) (caspase-3 [3]) | increase in the cathepsin-B activity (factor) (cathepsin-B [4]) | phosphorylation of 4E-BP1 (mTOR pathway [6]) | expression of p62/SQSTM1 (K562 cells [7]; K562, 24 hours, AICAR 1 mM) | LC3 cleavage (LC3-I into LC3-II) (K562 cells [7]; K562, 24 hours, AICAR 1 mM) | expression of p62/SQSTM1 (ImaR cells [8]) | LC3 cleavage (LC3-I into LC3-II) (ImaR cells [8]) | efficacy in dose-response experiment (number of viable cells) (ImaR cells [9]) | efficacy in dose-response experiment (number of viable cells) (K562 cells [10]; K562) | proportion of cells in the G2/M phase (K562 cells [11]) | cells in phase G0/G1 (K562 cells [11]) | cells in the subG1 phase (K562 cells [11]) | type of programmed cell death induced (K562 cells [7]) | proportion of cells in the G2/M phase (ImaR cells [12]) | viability at 500 µM (ImaR cells [9]; 0.5 mM) [%] | IC50 (ImaR cells [9]; 24 or 48 hours) [µM] | viability at 500 µM (K562 cells [10]; Homo sapiens, K562, 0.5 mM) [%] | IC50 (K562 cells [10]; [17]) [µM] | also measured
1 | NC(=O)c1ncn([C@@H]2O[C@H](CO)[C@@H](O)[C@H]2O)c1N [AICAR, 5-aminoimidazole-4-carboxamide-1-β-D-ribofuranoside, reference compound] | increase | total reduction | incapable of inducing this activation | increase | total reduction | increase in the expression | cleaved | increase in the expression | cleaved | ineffective | ineffective |  |  |  |  |  |  |  |  |  | increase in the caspase-3 activity (factor with respect to the control) (caspase-3 [5]): incapable of inducing this activation; AMPK activation (level of phosphorylation) (K562 cells [7]; [15]): activated; mTOR pathway: phosphorylation of the ribosomal protein S6 (K562 cells [7]; [15]): massive dephosphorylation; AMPK activation (level of phosphorylation) (ImaR cells [8]; [16]): activated; mTOR pathway: phosphorylation of the ribosomal protein S6 (ImaR cells [8]; [16]): massive dephosphorylation; reduction in cell viability (ImaR cells [9]; 0.5 mM, 24 or 48 hours, Example 1): cell viability loss; reduction in cell viability (K562 cells [10]; K562, 0.5 mM, 24 or 48 hours, Example 1): cell viability loss
2 | CCOC(=O)C#Cc1c(C(=O)OCC)nnn1[C@@H]1O[C@H](COC(C)=O)[C@@H](OC(C)=O)[C@H]1OC(C)=O [Compound 49, 1′-(4-ethoxycarbonyl-5-ethyl propiolate-[1,2,3]-triazol-1-yl)-2′,3′,5′-tri-O-acetyl-β-D-ribofuranose] |  |  | increase |  |  |  | cleaved |  | cleaved | particularly effective | particularly effective | increase | reduction | very pronounced accumulation | combination of the two types of mechanisms | increase | < 10 | ~10 | < 10 | ~10 | PARP cleavage (fragment at 85 kDa) (K562 cells [7]; K562, 24 hours, imatinib 3 μM, 112 at 2.5 μM, 15, 23, 49 at 10 μM): appearance of the characteristic cleavage fragment at 85 kDa; cells in phase G0/G1 (ImaR cells [12]): reduction; cells in the subG1 phase (ImaR cells [12]): very pronounced accumulation; PARP cleavage (fragment at 85 kDa) (ImaR cells [8]; imatinib 3 μM, 112 at 2.5 μM, 15, 23, 49 at 10 μM): appearance of the characteristic cleavage fragment at 85 kDa; pathway relaying the induced apoptosis (caspase-9 [13]; conclusion of Example 1, K562 and ImaR cells): intrinsic pathway
3 | CCOC(=O)c1nnn([C@@H]2O[C@H](COC(C)=O)[C@@H](OC(C)=O)[C@H]2OC(C)=O)c1-c1cccs1 [Compound 82, 1′-(4-ethoxycarbonyl-5-(2-thienyl)-[1,2,3]-triazol-1-yl)-2′,3′,5′-tri-O-acetyl-β-D-ribofuranose] | around 2 | total reduction |  | around 2 | total reduction | increase in the expression | cleaved | increase in the expression | cleaved | particularly effective | particularly effective | increase |  |  | autophagy alone | increase | < 10 | ~2.5 | < 10 | ~2.5 | 
4 | CCOC(=O)c1nnn(C2OC(COC(C)=O)C(OC(C)=O)C(OC(C)=O)C2OC(C)=O)c1I [Compound 191, 1′-(4-ethoxycarbonyl-5-iodo-[1,2,3]-triazol-1-yl)-2′,3′,4′,6′-tetra-O-acetyl-β-D-glucopyranose] | around 2 |  |  | around 2 |  | increase in the expression | cleaved | increase in the expression | cleaved | particularly effective | particularly effective |  |  |  | autophagy alone |  | < 10 | ~10 | < 10 | ~10 | 
5 | Cc1ccc(NC(=O)c2ccc(CN3CCN(C)CC3)cc2)cc1Nc1nccc(-c2cccnc2)n1 [imatinib, imatinib mesylate, reference compound] |  | totally inhibits |  |  |  |  |  |  |  |  |  |  | increase | small fraction of cells is also accumulated |  |  |  |  |  |  | cells in phase G0/G1 (ImaR cells [12]): not observed; cells in the subG1 phase (ImaR cells [12]): not observed; cell viability (ImaR cells [9]; imatinib 1 μM, 48 hours): affected only slightly; cytotoxicity at 1 µM (K562 cells [10]; Homo sapiens, K562, 48 h, read-out: cell viability loss): > 50%; caspase-9 activity (caspase-9 [13]; K562, 24 hours, imatinib 3 μM, 112 2.5 μM, 15 and 23 10 μM): strong increase; caspase-9 activity (caspase-9 [14]): not the case

— US9173892B2, “Acadesine derivatives, products and compositions including same, therapeutic uses thereof, and methods for synthesizing same” (Universite Nice Sophia Antipolis, priority 2011, dated 2015)
